Series [1] relates to Mus musculus. The series can be described thus: Sedative-hypnotic activity in mouse assessed as decrease in number of square crossing at 50 mg/kg, ip administrated as single dose and measured after 30 mins by open field test. The series is classed as functional, organism-based.
Series [2] is described as follows: Cmax in male Sprague-Dawley rat at 0.5 mg/kg, iv measured after 2 to 720 mins by LC-MS/MS analysis. It counts as ADME, organism-based. The note with it: in vivo, time 2-720 min.
Series [3] in a line: AUC (0 to infinity) in male Sprague-Dawley rat at 2.5 mg/kg, ip measured after 5 to 1440 mins by LC-MS/MS analysis. The series is classed as ADME, organism-based. Particulars: in vivo, time 5-1440 min.
Series [4] is described as follows: Drug concentration in male mouse plasma at 10 mg/kg, ip measured after 1 hrs by LC-MS/MS analysis. The series is classed as ADME, organism-based.
Series [5] relates to Mus musculus. The series can be described thus: Upregulation of ubiquitin mediated proteolysis related genes in hypothalamus of mouse at 2.5 mg/kg, ip measured after 30 mins by KEGG enrichment analysis relative to control. It counts as functional. Particulars: 0.5 h.
The test system of series [6] is Mus musculus. The series can be described thus: Upregulation of purine metabolism related genes in hypothalamus of mouse at 2.5 mg/kg, ip measured after 30 mins by KEGG enrichment analysis relative to control. It counts as functional. Particulars: 0.5 h.
In series [7] the test system is Mus musculus. The series can be described thus: Upregulation of parathyroid hormone synthesis related genes in hypothalamus of mouse at 2.5 mg/kg, ip measured after 30 mins by KEGG enrichment analysis relative to control. Particulars: 0.5 h. The series is classed as functional.

These results are taken from ChEMBL document CHEMBL6121007, “Design, synthesis and evaluation of pyrimidine derivatives as sedative-hypnotic agents” (Eur J Med Chem, 2025).

In general, Cmax refers to the highest concentration seen after dosing. What is called AUC(0-inf) is the area under the concentration-time curve extrapolated to infinity. A high value points to more exposure.

Active and inactive are the calls of the source. The calls are words filed in the database; no cut-off is given here.

As to `CCn1c2ccccc2c2cc(Nc3ccnc(Nc4ccc(C)c(OC)c4)n3)ccc21`, the result in the series with Mus musculus [1] was Active. In series [2], this compound displayed a Cmax of 893 ng/mL. Besides, in series [3], the area under the curve AUC(0-inf) was 3300 ng·h/mL. In series [4], this compound registered a concentration at 1 h of 75 ng/mL. The values for the Activity in the series with Mus musculus [5], in the series with Mus musculus [6] and with Mus musculus [7] were 1.73%, 1.73% and 4.05%, respectively.
